Assay results as given in a melting point compilation (Tetko et al.).

| melting point | Structure (SMILES) |
| --- | --- |
| 164 to 166 °C | NC(=O)C1CCN(CC(=O)c2ccc(Cl)cc2)CC1 |
| 218 to 220 °C | Nc1nc(-c2c(F)cccc2F)n[nH]1 |
| 201 to 203 °C | Cn1cc(C(=O)O)c(-c2cccnc2)n1 |
| 186 to 188 °C | CC(C)CC(=O)NC(C(=O)O)C(C)C (stereo not given) |
| 179 to 181 °C | NNC(=O)C(=O)Nc1ccccn1 |
| 151 to 153 °C | COCCN1C(=O)c2ccc(C(=O)O)cc2S1(=O)=O |
| 96 to 98 °C | O=C1COc2cccc(S(=O)(=O)Cl)c2N1 |
| 149 to 151 °C | Nc1ccc(-c2nc3ccccc3s2)cc1 |
| 151 to 153 °C | O=C(Nc1ccccc1)c1cccc(O)c1 |
| 142 to 144 °C | NCC1CC(=O)Nc2ccccc21 (stereo not given) |
| 250 to 252 °C | Cc1c[nH]c(=O)n1-c1ccc(F)c(F)c1 |
| 218 to 220 °C | Nc1nnc(C=Cc2ccco2)s1 |
| 95 to 97 °C | CCC1(c2ccc(F)cc2)NC(=O)NC1=O (stereo not given) |
| 219 to 221 °C | NS(=O)(=O)c1ccc(Cl)c(C(=O)O)c1 |
| 46 to 48 °C | Cc1nc(COc2ccc(C=O)cc2)cs1 |
| 160 to 162 °C | N#CCC(=O)Nc1ccccn1 |
| 131 to 133 °C | Nc1ccc(-n2cncn2)c(Cl)c1 |
| 177 to 179 °C | Cc1ccc2ncc(C(=O)O)n2c1 |

| melting point | Structure (SMILES) |
| --- | --- |
| 204 to 206 °C | O=C1CC(C(=O)O)CC(=O)N1 |
| 149 to 151 °C | COc1ccc(CCC(=O)O)cc1O |
| 147 to 149 °C | Cc1ccc(S(=O)(=O)Cl)c(C)c1C(=O)O |
| 119 to 121 °C | Nc1ccccc1C(=O)NCc1cccnc1 |
| 138 to 140 °C | CC1(C)CCc2c(sc(N)c2C(=O)N2CCOCC2)C1 |
| 171 to 173 °C | Cn1c(=O)c2cc(S(=O)(=O)Cl)cnc2n(C)c1=O |
| 132 to 134 °C | Cc1cc(C(F)(F)F)c(C#N)c(SCC(=O)O)n1 |
| 229 to 231 °C | Cc1[nH]c2c(Cl)cccc2c1C=O |
| 145 to 147 °C | CN(C1CCCCC1)S(=O)(=O)c1cccc(C(=O)O)c1 |
| 119 to 121 °C | CS(=O)c1nnc[nH]1 (stereo not given) |
| 203 to 205 °C | CC(C)CCNc1c(N)n(Cc2ccccc2)c(=O)[nH]c1=O |
| 231 to 233 °C | Cc1cc(-c2ccccc2)nc2cc(O)nn12 |
| 124 to 126 °C | O=C(O)c1noc2c1CCCC2 |
| 88 to 90 °C | O=C(C1Cc2ccccc2CN1)N1CCCC1 (stereo not given) |
| 106 to 108 °C | Nc1ncc(Cc2ccccc2)s1 |
| 145 to 147 °C | Cc1ccc(NC(=O)CN(C)C(=O)CCl)cc1 |
| 92 to 94 °C | CN(Cc1ccccc1)S(N)(=O)=O |
| 94 to 96 °C | BrCCOc1ccc2ccccc2c1 |

Continued, compound first:

| Structure (SMILES) | melting point |
| --- | --- |
| CCOc1cc(C=O)cc(Cl)c1O | 145 to 147 °C |
| Nc1nc(Cl)c(C=O)c(N2CCCC2)n1 | 176 to 178 °C |
| CNS(=O)(=O)c1ccc(CCC(=O)O)cc1 | 188 to 190 °C |
| O=S(=O)(Cl)c1ccc(S(=O)(=O)NC2CC2)cc1 | 126 to 128 °C |
| CS(=O)(=O)c1ccc(Br)c(S(=O)(=O)Cl)c1 | 160 to 162 °C |
| COc1cc(C=O)ccc1Oc1ccc(S(=O)(=O)N2CCCCC2)cc1[N+](=O)[O-] | 173 to 175 °C |
| Cc1c(C(C)N)cnn1-c1ccc(F)cc1 (stereo not given) | 42 to 44 °C |
| O=C(c1cccc([N+](=O)[O-])c1)N1CCNCC1 | 145 to 147 °C |
| O=C(O)c1cc(Cl)[nH]c(=O)c1 | 249 to 251 °C |
| CCOc1ccc(CN2C(=O)c3ccccc3C2=O)cc1C(=O)O | 172 to 174 °C |
| O=S(=O)(Cl)c1ccc2c(c1)Cc1ccccc1-2 | 157 to 159 °C |
| O=c1[nH]c2ccccc2cc1CO | 239 to 241 °C |
| CC1CC(C)CC2(C1)NC(=O)NC2=O (stereo not given) | 299 to 301 °C |
| Cc1ccc(S(=O)(=O)NC(C(=O)O)C(C)O)cc1 (stereo not given) | 177 to 179 °C |
| Nc1c(C(=O)O)nnc2ccccc12 | 257 to 259 °C |
| Cc1ccc(N2C(=O)Cc3ccccc3C2=O)cc1 | 173 to 175 °C |
| CCCNC(=O)CC#N | 53 to 55 °C |
| O=C(NC1CCOCC1)c1ccc(Cl)nn1 | 152 to 154 °C |
| O=Cc1ccc(Cl)c2cccnc12 | 132 to 134 °C |
| O=C(CO)NCc1ccc(F)cc1 | 102 to 104 °C |
| COc1ccc(C(N)c2cccc(S(C)(=O)=O)c2)cc1 (stereo not given) | 80 to 82 °C |
| CC1Nc2cc(=O)[nH]n2C(C)C1CC(=O)O (stereo not given) | 235 to 237 °C |

| Structure (SMILES) | melting point |
| --- | --- |
| Nc1ccccc1C(=O)Nc1cccc(C(F)(F)F)c1 | 133 to 135 °C |
| NC(=O)C(N)c1cccc(Br)c1 (stereo not given) | 107 to 109 °C |
| CCN(CC)S(=O)(=O)c1ccc(NCCO)c(N)c1 | 157 to 159 °C |
| O=C(O)C1=Cc2cccc(O)c2OC1 | 233 to 235 °C |
| Cc1nn(Cc2ccc(F)cc2)c(Cl)c1C=O | 49 to 51 °C |
| CC(=O)c1ccc(C(F)(F)C(=O)O)n1C | 115 to 117 °C |
| CCOc1c(Cl)cc(C(=O)O)cc1OC | 116 to 118 °C |
| O=Cc1ccc(-c2ccc([N+](=O)[O-])cc2Cl)o1 | 136 to 138 °C |
| N#CCc1ccc([N+](=O)[O-])cc1Br | 66 to 68 °C |
| O=C(O)c1cn(Cc2ccccc2)nc1-c1ccccc1 | 189 to 191 °C |
| CC(=O)c1ccc(NS(C)(=O)=O)cc1 | 155 to 157 °C |
| Cn1c(-c2ccccn2)cccc1=O | 66 to 68 °C |
| Cc1nccn1-c1cc(C#N)ccn1 | 194 to 196 °C |
| NS(=O)(=O)c1ccc(Cl)nc1Cl | 189 to 191 °C |
| NC(=O)c1cc(Cl)ccn1 | 157 to 159 °C |
| O=C(O)c1nnn(-c2ccccc2)c1C1CC1 | 174 to 176 °C |
| O=C(CCl)Cc1ccc(F)cc1 | 127 to 129 °C |
| O=C(O)C1(O)CCC1 | 39 to 41 °C |
| CCC(=O)N(C)c1ccccc1C(=O)O | 193 to 195 °C |
| Cn1c(-c2ccccc2)c(C(=O)O)c2ccccc21 | 192 to 194 °C |
| CC(C)n1ccc(C(=O)O)n1 | 77 to 79 °C |
| O=S(=O)(c1ccccc1)n1c(I)cc2cccnc21 | 109 to 111 °C |

| Structure (SMILES) | melting point |
| --- | --- |
| Cn1c(-c2ccccc2)c(C(=O)CCl)c2ccccc21 | 146 to 148 °C |
| CC(C)NS(=O)(=O)c1ccc(/C=C/C(=O)O)cc1 | 223 to 225 °C |
| CCCSc1ccc([N+](=O)[O-])c(N)c1 | 71 to 74 °C |
| O=C(O)CNC(=O)/C=C/c1ccccc1 | 191 to 193 °C |
| Cc1nc(Cl)c2c(-c3ccccc3)c(C)sc2n1 | 60 to 62 °C |
| Cc1cc(C)n(Cc2cccc(C(=O)O)c2)n1 | 220 to 222 °C |
| CS(=O)(=O)NCCc1ccc(C(=O)O)cc1 | 171 to 173 °C |
| Cn1c(S)nc2ccccc21 | 190 to 194 °C |
| O=C(O)c1cnc2c(OC(F)(F)F)cccc2c1O | 259 to 261 °C |
| Cc1ccccc1NC1=NC(C)(C)CS1 | 159 to 161 °C |
| COC(=O)Cc1nnc(N)[nH]1 | 159 to 161 °C |
| CN(C)c1ccc([N+](=O)[O-])cc1C(=O)O | 149 to 151 °C |
| O=C(CCl)Nc1nnc(C2CC2)o1 | 148 to 150 °C |
| CC(N)(C(=O)O)c1cc(F)ccc1F (stereo not given) | 301 to 303 °C |
| CCOC(=O)Cn1nc(C)c(C=O)c1C | 79 to 81 °C |
| CCC(=O)Nc1ccc(C#N)cc1 | 174 to 176 °C |
| CCOc1ccc(N)cc1CN1CCCC1 | 58 to 60 °C |
| N=C1N=C2C=CC(Br)=CN2Cc2ccccc21 | 178 to 180 °C |
| Nc1ccc(F)c(NC(=O)C2CC2)c1 | 121 to 123 °C |
| ClCc1ncc(-c2ccccc2Br)o1 | 85 to 87 °C |
